Results from ChEMBL document CHEMBL4364277, “Medicinal prospects of antioxidants: A review” (Eur J Med Chem, 2019).

Assays:
[1] = Hemolytic activity in human RBC relative to control; assay type: cell-based, Erythrocyte; settings: red blood cells (erythrocytes), read-out: Activity
Rattus norvegicus [2] = experiment: Anti-inflammatory activity in rat assessed as inhibition of formalin-induced paw edema administered as po dose pretreated for 1 hr followed by formalin addition measured up to 6 hrs relative to control; assay type: functional
[3] = Anti glycation activity assessed as inhibition of BSA glycation after 7 days in presence of glucose by spectrofluorimetry assay; assay type: functional
[4] = Antioxidant activity assessed as DPPH radical scavenging activity after 30 mins; assay type: functional
Rattus norvegicus [5] = experiment: Anti-inflammatory activity in rat assessed as inhibition of formalin-induced paw edema at 20 mg/kg, po pretreated for 1 hr followed by formalin addition measured up to 6 hrs relative to control; assay type: functional
MCF7 = experiment: Cytotoxicity against human MCF7 cells after 48 hrs by MTT assay; assay type: functional, cell-based; settings: MCF7, 48 h

`O=C(Cc1cc(=O)oc2cc(O)ccc12)Nc1nc2ccccc2o1` showed a hemolysis [1] of 92.5%.
With `O=C(Nc1nc2ccccc2[nH]1)c1cc2ccccc2oc1=O` the “inhibition (INH)” value (Rattus norvegicus [2]) was 42.85%.
For `Oc1ccc(-c2nc3ncc(Cl)cc3[nH]2)c(O)c1`, the IC50 [3] was 240 µM and the IC50 [4] was 58.1 µM.
With `O=c1oc2ccc(Cl)cc2cc1-c1nc2ccccc2[nH]1` the “inhibition (INH)” value (Rattus norvegicus [2]) was 46.75%.
Molecule `Oc1ccc(O)c(-c2nc3ncc(Cl)cc3[nH]2)c1` has an IC50 [3] of 240 µM and an IC50 [4] of 72.5 µM.
In the case of `COc1ccc2c(c1)c(CC(=O)O)c(C)n2C(=O)c1ccc(Cl)cc1` [INDOMETHACIN], the inhibition in vivo at 20 mg/kg (Rattus norvegicus [5]) is reported as 54.5%.
With `Cc1nnc(N2C(=O)CSC2c2ccccc2[N+](=O)[O-])s1` (centres undefined) the IC50 (MCF7) was 46.3 µM.
